Measurements as given in patent US8324390B2, “Tetrazole-substituted anthranilamides as pesticides” (Bayer CropScience AG, priority 2008, dated 2012).
Like-named read-outs stand apart in the source and are kept apart here.

Experiments:
[1] = tested on: caterpillars of the armyworm (Spodoptera frugiperda); test: Spodoptera frugiperda test (SPODFR spray treatment); assay type: in vivo; conditions: Spodoptera frugiperda, foliar, read-out: effect in % (caterpillars killed)
Source text: Solvent: 78.0 parts by weight of acetone

[2] = log P determination by HPLC (EEC Directive 79/831 Annex V.A8); assay type: physicochemical
Procedure: The measurements were carried out using an Agilent 1100 LC system with a 50*4.6 Zorbax Eclipse C18 1.8 μm column (oven temperature 55° C., flow rate 2.0 ml/min).
The following mobile phases were used:
Mobile phase A: acetonitrile+1000 μl of formic acid/l
Mobile phase B: Millipore water+900 μl of formic acid/l

[3] = tested on: larvae of the mustard beetle (Phaedon cochleariae); test: Phaedon test (PHAECO spray treatment); conditions: Phaedon cochleariae, in Brassica rapa, foliar, read-out: effect in % (beetle larvae killed)
[4] = application rate 100 g/ha, maize leaf discs
[5] = reversed-phase HPLC, Zorbax Eclipse C18 column, by HPLC according to EEC Directive 79/831 Annex V.A8, read-out: log P
[6] = reversed-phase HPLC, Zorbax Eclipse C18 column, determined by HPLC according to EEC Directive 79/831 Annex V.A8, read-out: log P

| SMILES | pest or weed control at 100 g/ha ([1]; in Zea mays) | chromatographic logP ([2]; log P) | pest or weed control at 100 g/ha [3] | pest or weed control at 100 g/ha [1, 4] | chromatographic logP [2, 5] | chromatographic logP [2, 6] | chromatographic logP ([2]; by HPLC according to EEC Directive 79/831 Annex V.A8, read-out: log P) |
| --- | --- | --- | --- | --- | --- | --- | --- |
| Cc1cc(Br)cc(C(=O)NC(C)C)c1NC(=O)c1cc(Cn2nnc(C(F)(F)F)n2)nn1-c1ncccc1Cl [Example 39] | ≥ 80% | 3.57 | ≥ 80% |  |  |  |  |
| CNC(=O)c1cc(Cl)cc(C)c1NC(=O)c1cc(Cn2nnc(C(F)(F)F)n2)nn1-c1ccc(Cl)cc1Cl [Example 239] |  |  | ≥ 80% | ≥ 80% | 3.97 |  |  |
| CCNC(=O)c1cc(I)cc(C)c1NC(=O)c1cc(Cn2nnc(C(F)(F)F)n2)nn1-c1ncccc1Br [Example 408] |  |  | ≥ 80% | ≥ 80% |  | 3.51 |  |
| N#CCNC(=O)c1cc(Cl)cc(Cl)c1NC(=O)c1cc(Cn2nnc(C(F)(C(F)(F)F)C(F)(F)F)n2)nn1-c1ncccc1Cl [Example 393] | ≥ 80% | 3.59 | ≥ 80% |  |  |  |  |
| Cc1cc(C#N)cc(C(N)=O)c1NC(=O)c1cc(Cn2nnnc2C(F)(F)F)nn1-c1ncccc1Cl [Example 192] | ≥ 80% | 2.12 | ≥ 80% |  |  |  |  |
| Cc1cc(Cl)cc(C(=O)NC(C)(C)C)c1NC(=O)c1cc(Cn2nnnc2C(F)(F)F)nn1-c1ncccc1Cl [Example 197] | ≥ 80% | 3.47 | ≥ 80% |  |  |  |  |
| Cc1cc(C#N)cc(C(=O)NC2CCCC2)c1NC(=O)c1cc(Cn2nnc(C(F)(F)F)n2)nn1-c1ncccc1Cl [Example 399] | ≥ 80% | 3.37 | ≥ 80% |  |  |  |  |
| CSC[C@H](C)NC(=O)c1cc(Cl)cc(Cl)c1NC(=O)c1cc(Cn2nnc(C(F)(C(F)(F)F)C(F)(F)F)n2)nn1-c1ncccc1Cl [Example 394] |  |  | ≥ 80% | ≥ 80% | 4.3 |  |  |
| Cc1cc(C#N)cc(C(=O)NC(C)C)c1NC(=O)c1cc(Cn2nnc(C(F)(F)C(F)(F)F)n2)nn1-c1ccccc1Cl [Example 539] |  |  | ≥ 80% | ≥ 80% |  | 3.91 |  |
| CCNC(=O)c1cc(Cl)cc(C)c1NC(=O)c1cc(Cn2nnc(C(F)(F)C(F)(F)F)n2)nn1-c1ncccc1Cl [Example 128] | ≥ 80% | 3.65 | ≥ 80% |  |  |  |  |
| Cc1cc(C#N)cc(C(=O)NC(C)C)c1NC(=O)c1cc(Cn2nnnc2C(F)(F)C(F)(F)F)nn1-c1ncccc1Cl [Example 202] | ≥ 80% | 3.14 | ≥ 80% |  |  |  |  |
| Cc1cc(C#N)cc(C(=O)NCCCN)c1NC(=O)c1cc(Cn2nnc(C(F)(F)F)n2)nn1-c1ncccc1Cl [Example 124] | ≥ 80% | 1.63 | ≥ 80% |  |  |  |  |
| CNC(=O)c1cc(C#N)cc(C)c1NC(=O)c1cc(Cn2nnc(C(F)F)n2)nn1-c1ncccc1Cl [Example 262] | ≥ 80% | 2.17 | ≥ 80% |  |  |  |  |
| O=C(NC1CCC1)c1cc(Cl)cc(Cl)c1NC(=O)c1cc(Cn2nnc(C(F)(F)F)n2)nn1-c1ncccc1Cl [Example 62] | ≥ 80% | 3.51 | ≥ 80% |  |  |  |  |
| CNC(=O)c1cc(Cl)cc(C)c1NC(=O)c1cc(Cn2nnnc2C(F)(F)F)nn1-c1ccccc1F [Example 474] |  |  | ≥ 80% | ≥ 80% |  | 2.94 |  |
| Cc1cc(Br)cc(C(=O)NC2CC2)c1NC(=O)c1cc(Cn2nnc(C(F)(F)C(F)(F)F)n2)nn1-c1ncccc1Cl [Example 145] | ≥ 80% | 3.74 | ≥ 80% |  |  |  |  |

| SMILES | pest or weed control at 100 g/ha ([1]; in Zea mays) | chromatographic logP ([2]; log P) | pest or weed control at 100 g/ha [3] | pest or weed control at 100 g/ha [1, 4] | chromatographic logP [2, 5] | chromatographic logP [2, 6] | chromatographic logP ([2]; by HPLC according to EEC Directive 79/831 Annex V.A8, read-out: log P) |
| --- | --- | --- | --- | --- | --- | --- | --- |
| CC(C)NC(=O)c1cc(Cl)cc(Cl)c1NC(=O)c1cc(Cn2nnc(C(F)(C(F)(F)F)C(F)(F)F)n2)nn1-c1ncccc1Cl [Example 389] | ≥ 80% | 4.12 | ≥ 80% |  |  |  |  |
| Cc1cc(Br)cc(C(N)=O)c1NC(=O)c1cc(Cn2nnc(C(F)(F)F)n2)nn1-c1ncccc1C(F)(F)F [Example 251] |  |  | ≥ 80% | ≥ 80% | 3.04 |  |  |
| Cc1cc(C#N)cc(C(=O)NC(C2CC2)C2CC2)c1NC(=O)c1cc(Cn2nnc(C(F)(F)F)n2)nn1-c1ncccc1Cl [Example 87] | ≥ 80% | 3.65 | ≥ 80% |  |  |  |  |
| CC(NC(=O)c1cc(Cl)cc(Cl)c1NC(=O)c1cc(Cn2nnc(C(F)(F)C(F)(F)F)n2)nn1-c1ncccc1Cl)C1CC1 (stereo not drawn) [Example 150] | ≥ 80% | 4.12 | ≥ 80% |  |  |  |  |
| Cc1cc(C#N)cc(C(=O)NCC(F)F)c1NC(=O)c1cc(Cn2nnc(C(F)(C(F)(F)F)C(F)(F)F)n2)nn1-c1ncccc1Cl [Example 375] |  |  | ≥ 80% | ≥ 80% | 3.57 |  |  |
| Cc1cc(C#N)cc(C(=O)NCC#N)c1NC(=O)c1cc(Cn2nnc(C(F)(F)C(F)(F)F)n2)nn1-c1ncccc1Cl [Example 210] | ≥ 80% | 3.01 | ≥ 80% |  |  |  |  |
| CSC[C@H](C)NC(=O)c1cc(Cl)cc(C)c1NC(=O)c1cc(Cn2nnc(C(F)F)n2)nn1-c1ncccc1Cl [Example 302] | ≥ 80% | 3.18 | ≥ 80% |  |  |  |  |
| CNC(=O)c1cc(Cl)cc(C)c1NC(=O)c1cc(Cn2nnc(C(F)(F)C(F)(F)F)n2)nn1-c1ncccc1Cl [Example 125] | ≥ 80% | 3.39 | ≥ 80% |  |  |  |  |
| Cc1cc(I)cc(C(=O)NC(C)C)c1NC(=O)c1cc(Cn2nnc(C(F)(F)C(F)(F)F)n2)nn1-c1ncccc1Cl [Example 142] | ≥ 80% | 4.19 | ≥ 80% |  |  |  |  |
| Cc1cc(I)cc(C(=O)NC(C)C)c1NC(=O)c1cc(Cn2nnc(C(F)(C(F)(F)F)C(F)(F)F)n2)nn1-c1ncccc1Cl [Example 381] | ≥ 80% | 4.44 | ≥ 80% |  |  |  |  |
| Cc1cc(Br)cc(C(=O)NC(C)C2CC2)c1NC(=O)c1cc(Cn2nnc(C(F)F)n2)nn1-c1ncccc1Cl (stereo not drawn) [Example 297] | ≥ 80% | 3.36 | ≥ 80% |  |  |  |  |
| CNC(=O)c1cc(I)cc(C)c1NC(=O)c1cc(Cn2nnc(C(F)(F)C(F)(F)C(F)(F)F)n2)nn1-c1ncccc1Cl [Example 112] | ≥ 80% |  | ≥ 80% |  |  |  | 3.99 |
| CNC(=O)c1cc(Cl)cc(C)c1NC(=O)c1cc(Cn2nnc(C(C)(C)C)n2)nn1-c1ncccc1Cl [Example 103] | ≥ 80% | 3.02 | ≥ 80% |  |  |  |  |
| Cc1cc(Cl)cc(C(=O)NC2CC2)c1NC(=O)c1cc(Cn2nnc(C(F)(F)F)n2)nn1-c1ncccc1C(F)(F)F [Example 225] |  |  | ≥ 80% | ≥ 80% | 3.39 |  |  |
| Cc1cc(Cl)cc(C(=O)NC(C)C2CC2)c1NC(=O)c1cc(Cn2nnc(C(F)(C(F)(F)F)C(F)(F)F)n2)nn1-c1ncccc1Cl (stereo not drawn) [Example 366] |  |  | ≥ 80% | ≥ 80% | 4.5 |  |  |
